Values of other authors, collected in paper PMC9686516, “Pharmacokinetic Characteristics of Nebulized Colistimethate Sodium Using Two Different Types of Nebulizers in Critically Ill Patients with Ventilator-Associated Respiratory Infections” (Antibiotics, 2022).
Where a SMILES comes first, the peptide text is derived from it. Bridges are numbered along the chain shown (N, C = ends). [ ]: non-standard residue; d: D form. The star is where a group is joined. X1 = CC[C@H](C)CCCCC(=O)*; Dab = NCC[C@H](N)C(=O)O

Conditions: cited from earlier work
Experimental: The median (IQR) values of colistin concentration in plasma (Ccolistin, plasma) using VMN nebulization were 0.6 (0.4–0.7) mg/L, 2.3 (1.4–2.7) mg/L, 1.7 (1.1–2.0) mg/L, 0.8 (0.7–0.9) mg/L, 0.4 (0.3–0.6) mg/L, and 0.2 (0.2–0.4) mg/L, at 0.5, 1, 2, 4, 6 and 8 h post-nebulization. The corresponding values with JN were 0.1 (0.1–0.1) mg/L, 0.1 (0.1–0.2) mg/L, 0.3 (0.3–0.4) mg/L, 0.2 (0.2–0.2) mg/L, 0.1 (0.1–0.1) mg/L, and 0.1 (0.1–0.1) mg/L (Figure 3). Median Ccolistin, plasma was greater than 2 mg/L at 1 h post-nebulization, a value which is the average concentration, in steady-state conditions, th ... || Contrarily, our results were only marginally compatible with the results of Boisson et al. and Gkoufa et al.. In the former study, the range of colistin concentration in the ELF following a 2 mIU inhalation spanned from 9.53 to 1137 mg/L [14], while it was between 0.8 mg/L and 57.9 mg/L in the present study. In the latter study, the exact values were not reported, however in the figured data it was shown that after an inhalation of 3 to 5 mIU of CMS, formed colistin concentrations were in the range of 10^2 to 10^3 mg/L [16]. Again, it is not known whether these differences we ...

SMILES: CC[C@H](C)CCCCC(=O)N[C@@H](CCN)C(=O)N[C@H](C(=O)N[C@@H](CCN)C(=O)N[C@H]1CCNC(=O)[C@H]([C@@H](C)O)NC(=O)[C@H](CCN)NC(=O)[C@H](CCN)NC(=O)[C@H](CC(C)C)NC(=O)[C@@H](CC(C)C)NC(=O)[C@H](CCN)NC1=O)[C@@H](C)O [colistin] (X1-[Dab]T[Dab][Dab][Dab][dL]L[Dab][Dab]T; lactam 4-C)
- average plasma concentration, in steady-state conditions, that predicts acute renal failure: 2 mg/L
- formed colistin plasma values linked to the occurrence of nephrotoxicity: 2 to 2.5 mg/L
